The test system of series [1] is SJL mice with EAE. In words: Axonal damage in SJL mice with EAE, SMI312/SMI32 immunohistochemistry of spinal cord. It is filed as in vivo, mouse. The protocol: A9 (or the vehicle control) was administered orally.
Following treatment, the thoracic spinal cords were fixed in 4% PFA, embodied in paraffin and sectioned for IHC.

The subject of series [2] is primary rat SNc neuron cultures. Put plainly: [3H]Dopamine uptake in primary SNc neuron cultures. The following applies: A9 for six days. The series is classed as cell-based. The protocol:
Primary cultures of rat embryonic SNc neuron cultures were grown on treated 12-well plates (for dopamine uptake) or coverslips (for neuroprotection) for 10 days as described in the Examples section. In FIG. 6A, the neurons were treated with different concentrations of A9 for 6 days before dopamine uptake was measured. Data=mean±SD (n=3). In FIG. 6B, MPP^+ (25 μM) was added into medium on day 11, while A9 was added either on day 10 (pretreatment) or day 12 (after MPP^+). Half of the medium was changed with fresh A9 on day 14. The neurons were fixed on day 16 and stained for tyrosine hydroxylase (TH, green) and total-ERK (red). Images were captured with fluorescence microscopy at magnification×100.
Dopamine uptake: NS20Y cells or neuron cultures are plated on poly-L-lysine (for NS20Y) or poly-D-lysine (for neuron culture)-coated 24-well plates and grown to confluence. The medium is decanted and cells are prepared for [^3H]dopamine uptake. Cells are incubated in the presence or absence of mazindol (10 μM to determine nonspecific uptake) for at least 10 minutes prior to addition of [^3H]dopamine. The uptake assay (final volume 0.5 ml) is initiated by the addition of 50 nM [^3H]dopamine and 2 μM dopamine in Krebs-HEPES buffer. […] Radioactivity remaining in each well is determined using liquid scintillation spectrometry. […]

The nature of series [3]: Stability of A9 in solution. It is filed as physicochemical. The method, then: 5. Physical properties: A9 stock can be dissolved in ethanol, methylene chloride, or DMSO as high as 25 mg/ml. The stock of A9 can then be diluted in water or saline. The final concentration in saline can reach 10 mg/ml according to our experience. A9 is very stable in organic solvents and keeps its activity (indicated by its ability to stimulate ERK activation in NS20Y cells, data not shown) for 6 months at room temperature. […] In saline, its half-life was reported to be 4 days at 37° C. (Golumb, Atherosclerosis 125:171-182, 1996). […] A similar evaluation of the chemical nature of any tyrphostin can be used to determine if it is of use to induce neurite outgrowth and regeneration in a subject.

These results are taken from patent US20090012179A1, “Use of Tyrphostins to Stimulate Neurite Outgrowth” (priority 2004, published 2009).

The structures appear in SMILES notation. “Also recorded” adds a separate entry of the source.

Take `CC(C)(C)c1cc(C=C(C#N)C#N)cc(C(C)(C)C)c1O` [A9, tyrphostin A9]: the “Damaged axons, SMI32 staining” value in series [1] (SJL mice with EAE, 1 μg A9 orally) was “effectively reduced; also recorded: reduces the presence of damaged axons”. Further, the “Axonal damage in the spinal cord” value in series [1] (SJL mice, EAE induced with PLP139-151, 1 μg A9 orally) is given as “reduced the axonal damage”. Besides, the “Ability to cross the blood brain barrier” value in series [1] (after oral administration, inferred from CNS effect in EAE mice) is “has the ability to cross the blood brain barrier”. In series [2], the “Concentration at which maximum dopamine uptake response is reached” value is given as 100 nM and the Dopamine uptake entry is “increased dopamine uptake in primary rat SNc neuron cultures in a concentration-dependent manner; also recorded: stimulated dopamine uptake increase”. The “Effect of repeated freeze/thaw cycles on activity” value in series [3] (in organic solvents) is listed as “do not affect its activity”. Also, the “Time for which activity is kept in organic solvents” value in series [3] (room temperature, activity by ERK activation in NS20Y cells) came to 6 months.
